# Measured values: PubChem BioAssay (NCI)
#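 Cultured in 96-well plates, cells were exposed to test compound for 48 hours across five concentrations. TGI: total growth inhibition.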
# Tests used:
# Experiment in all cases: inhibition of tumour cell growth, NCI panel, 48 h
# 786-0 renal = tested on: 786-0 renal
# A498 renal = tested on: A498 renal
# A549 NSCLC = tested on: A549 NSCLC
# ACHN renal = tested on: ACHN renal
# CAKI-1 renal = tested on: CAKI-1 renal
# CCRF-CEM leukemia = tested on: CCRF-CEM leukemia
# COLO 205 colon = tested on: COLO 205 colon
# DLD-1 colon = tested on: DLD-1 colon
# DMS 114 small cell lung = tested on: DMS 114 small cell lung
# DMS 273 small cell lung = tested on: DMS 273 small cell lung
# EKVX NSCLC = tested on: EKVX NSCLC
# HCC-2998 colon = tested on: HCC-2998 colon
# HCT-116 colon = tested on: HCT-116 colon
# HL-60(TB) leukemia = tested on: HL-60(TB) leukemia
# HOP-18 NSCLC = tested on: HOP-18 NSCLC
# HOP-92 NSCLC = tested on: HOP-92 NSCLC
# HT29 colon = tested on: HT29 colon
# IGROV1 ovarian = tested on: IGROV1 ovarian
# K-562 leukemia = tested on: K-562 leukemia
# KM12 colon = tested on: KM12 colon
# LXFL 529 NSCLC = tested on: LXFL 529 NSCLC
# M19-MEL melanoma = tested on: M19-MEL melanoma
# MALME-3M melanoma = tested on: MALME-3M melanoma
# MOLT-4 leukemia = tested on: MOLT-4 leukemia
# NCI-H226 lung = tested on: NCI-H226 lung
# NCI-H23 lung = tested on: NCI-H23 lung
# NCI-H460 lung = tested on: NCI-H460 lung
# NCI-H522 lung = tested on: NCI-H522 lung
# OVCAR-3 ovarian = tested on: OVCAR-3 ovarian
# OVCAR-5 ovarian = tested on: OVCAR-5 ovarian
# OVCAR-8 ovarian = tested on: OVCAR-8 ovarian
# RPMI-8226 leukemia = tested on: RPMI-8226 leukemia
# RXF 393 renal = tested on: RXF 393 renal
# SF-268 CNS = tested on: SF-268 CNS
# SF-295 CNS = tested on: SF-295 CNS
# SF-539 CNS = tested on: SF-539 CNS
# SK-MEL-2 melanoma = tested on: SK-MEL-2 melanoma
# SK-MEL-28 melanoma = tested on: SK-MEL-28 melanoma
# SK-MEL-5 melanoma = tested on: SK-MEL-5 melanoma
# SK-OV-3 ovarian = tested on: SK-OV-3 ovarian
# SN12C renal = tested on: SN12C renal
# SNB-19 CNS = tested on: SNB-19 CNS
# SNB-75 CNS = tested on: SNB-75 CNS
# SNB-78 CNS = tested on: SNB-78 CNS
# SR leukemia = tested on: SR leukemia
# SW-620 colon = tested on: SW-620 colon
# TK-10 renal = tested on: TK-10 renal
# U251 CNS = tested on: U251 CNS
# UACC-257 melanoma = tested on: UACC-257 melanoma
# UACC-62 melanoma = tested on: UACC-62 melanoma
# UO-31 renal = tested on: UO-31 renal
# HOP-62 NSCLC = tested on: HOP-62 NSCLC
# KM20L2 colon = tested on: KM20L2 colon
# M14 melanoma = tested on: M14 melanoma
# OVCAR-4 ovarian = tested on: OVCAR-4 ovarian
# XF 498 CNS = tested on: XF 498 CNS
smiles,measurement,setting,value
O=[N+]([O-])c1ccc(Cl)c(C2SCc3nc4ccccc4n32)c1 (centres undefined),TGI,786-0 renal,> 100 µM
same,TGI,A498 renal,> 100 µM
same,TGI,A549 NSCLC,> 100 µM
same,TGI,ACHN renal,> 100 µM
same,TGI,CAKI-1 renal,76.1 µM
same,TGI,CCRF-CEM leukemia,> 100 µM
same,TGI,COLO 205 colon,> 100 µM
same,TGI,DLD-1 colon,> 100 µM
same,TGI,DMS 114 small cell lung,> 100 µM
same,TGI,DMS 273 small cell lung,> 100 µM
same,TGI,EKVX NSCLC,> 100 µM
same,TGI,HCC-2998 colon,> 100 µM
same,TGI,HCT-116 colon,> 100 µM
same,TGI,HL-60(TB) leukemia,78.5 µM
same,TGI,HOP-18 NSCLC,67.7 µM
same,TGI,HOP-92 NSCLC,45.3 µM
same,TGI,HT29 colon,> 100 µM
same,TGI,IGROV1 ovarian,> 100 µM
same,TGI,K-562 leukemia,> 100 µM
same,TGI,KM12 colon,> 100 µM
same,TGI,LXFL 529 NSCLC,> 100 µM
same,TGI,M19-MEL melanoma,> 100 µM
same,TGI,MALME-3M melanoma,> 100 µM
same,TGI,MOLT-4 leukemia,> 100 µM
same,TGI,NCI-H226 lung,69.1 µM
same,TGI,NCI-H23 lung,> 100 µM
same,TGI,NCI-H460 lung,81.1 µM
same,TGI,NCI-H522 lung,> 100 µM
same,TGI,OVCAR-3 ovarian,> 100 µM
same,TGI,OVCAR-5 ovarian,> 100 µM
same,TGI,OVCAR-8 ovarian,> 100 µM
same,TGI,RPMI-8226 leukemia,> 100 µM
same,TGI,RXF 393 renal,> 100 µM
same,TGI,SF-268 CNS,> 100 µM
same,TGI,SF-295 CNS,> 100 µM
same,TGI,SF-539 CNS,> 100 µM
same,TGI,SK-MEL-2 melanoma,> 100 µM
same,TGI,SK-MEL-28 melanoma,> 100 µM
same,TGI,SK-MEL-5 melanoma,30.4 µM
same,TGI,SK-OV-3 ovarian,88 µM
same,TGI,SN12C renal,> 100 µM
same,TGI,SNB-19 CNS,> 100 µM
same,TGI,SNB-75 CNS,89.9 µM
same,TGI,SNB-78 CNS,> 100 µM
same,TGI,SR leukemia,> 100 µM
same,TGI,SW-620 colon,88.3 µM
same,TGI,TK-10 renal,> 100 µM
same,TGI,U251 CNS,> 100 µM
same,TGI,UACC-257 melanoma,93 µM
same,TGI,UACC-62 melanoma,> 100 µM
same,TGI,UO-31 renal,66.1 µM
CCN1/C(=C/C(C)=C/c2sc3ccccc3[n+]2CC)Sc2ccccc21,TGI,A498 renal,1.82 µM
same,TGI,A549 NSCLC,1.42 µM
same,TGI,ACHN renal,3.13 µM
same,TGI,CAKI-1 renal,0.693 µM
same,TGI,CCRF-CEM leukemia,0.166 µM
same,TGI,EKVX NSCLC,1.4 µM
same,TGI,HCC-2998 colon,0.876 µM
same,TGI,HCT-116 colon,1.42 µM
same,TGI,HL-60(TB) leukemia,4.78 µM
same,TGI,HOP-62 NSCLC,0.391 µM
same,TGI,HOP-92 NSCLC,0.338 µM
same,TGI,HT29 colon,1.72 µM
same,TGI,IGROV1 ovarian,2 µM
same,TGI,K-562 leukemia,1.24 µM
same,TGI,KM12 colon,1.21 µM
same,TGI,KM20L2 colon,2.03 µM
same,TGI,LXFL 529 NSCLC,1.2 µM
same,TGI,M14 melanoma,0.847 µM
same,TGI,M19-MEL melanoma,2.16 µM
same,TGI,MALME-3M melanoma,1.71 µM
same,TGI,MOLT-4 leukemia,1.15 µM
same,TGI,NCI-H23 lung,0.824 µM
same,TGI,NCI-H460 lung,0.517 µM
same,TGI,OVCAR-4 ovarian,1.62 µM
same,TGI,OVCAR-5 ovarian,1.73 µM
same,TGI,OVCAR-8 ovarian,1.37 µM
same,TGI,RPMI-8226 leukemia,4.48 µM
same,TGI,RXF 393 renal,1.59 µM
same,TGI,SF-268 CNS,1.76 µM
same,TGI,SF-295 CNS,0.491 µM
same,TGI,SF-539 CNS,1.11 µM
same,TGI,SK-MEL-2 melanoma,1.1 µM
same,TGI,SK-MEL-28 melanoma,1.22 µM
same,TGI,SK-MEL-5 melanoma,1.11 µM
same,TGI,SK-OV-3 ovarian,0.375 µM
same,TGI,SNB-19 CNS,0.0976 µM
same,TGI,SNB-75 CNS,1.15 µM
same,TGI,SNB-78 CNS,2.51 µM
same,TGI,SR leukemia,1.75 µM
same,TGI,TK-10 renal,1.37 µM
same,TGI,UACC-62 melanoma,1.21 µM
same,TGI,UO-31 renal,1.47 µM
same,TGI,XF 498 CNS,0.663 µM
